Experiments:
[1] = compound: CC(=O)O[C@H]1C(=O)[C@@]2(C)[C@H]([C@H](OC(=O)c3ccccc3)[C@]3(O)C[C@H](OC(=O)[C@H](O)[C@@H](NC(=O)c4ccccc4)c4ccccc4)C(C)=C1C3(C)C)[C@]1(OC(C)=O)CO[C@@H]1C[C@@H]2O [Paclitaxel]
[2] = compound: C1=CC2=C(C=CC(=C2)C=C3C(=O)NC(=NCC4=CC=CS4)S3)N=C1 [R0-3306]
[3] = compound: T1, CN1CC[C@H](c2c(O)cc(O)c3c(=O)cc(-c4ccccc4Cl)oc23)[C@H](O)C1 [Flavopiridol]
[4] = compound: CCC1=CN=CN=C1N2CCN(CC2)CC3=NC4=C(N3)C=C(C=C4)C(F)(F)F
[5] = compound: NC1(C(=O)N[C@@H](CCO)c2ccc(Cl)cc2)CCN(c2nc[nH]c3nccc2-3)CC1 [AZD5363]
[6] = compound: CC(=O)c1c(C)c2cnc(Nc3ccc(N4CCN(CCOCCOCCOCCNC(=O)COc5cccc6c5C(=O)N(C5CCC(=O)NC5=O)C6=O)CC4)cn3)nc2n(C2CCCC2)c1=O [BSJ-03-123]
[7] = compound: CO[C@@H](C)Cn1c(=O)n(C)c2cnc3ccc(-c4cncc(C(C)(C)O)c4)cc3c21
[8] = compound: CCOc1cc2ncc(C#N)c(Nc3ccc(OCc4ccccn4)c(Cl)c3)c2cc1NC(=O)/C=C/CN(C)C [Neratinib/HKI272]
[9] = compound: CC(C)Nc1cc(-c2c[nH]c(C(=O)N[C@H](CO)c3cccc(Cl)c3)c2)c(Cl)cn1 [BVD523]
[10] = compound: CCN1CCN(Cc2ccc(Nc3ncc(F)c(-c4cc(F)c5nc(C)n(C(C)C)c5c4)n3)nc2)CC1; test: GR value, 72 h; higher = faster growth (1 = untreated, <0 = killing);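 note: breast cancer and non-malignant breast epithelial lines, nine half-log doses, viable cells counted by Hoechst and LIVE/DEAD dye imaging versus time-zero plates and DMSO controls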
[11] = compound: C=CC(=O)Nc1ccc(C(=O)Nc2[nH]nc3c2CN(C(=O)N[C@H](CN(C)C)c2ccccc2)C3(C)C)cc1 [YKL-5-124]; test: as above
[12] = compound: CCc1cnn2c(NCc3ccc[n+]([O-])c3)cc(N3CCCC[C@H]3CCO)nc12; test: as above
[13] = compound: T1, Flavopiridol; test: as above
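Throughout, for GR50, 72 h: breast cancer and non-malignant breast epithelial cell lines, Deep Dye Drop or Dye Drop imaging, nine half-log doses, GR normalized to time-zero plates and DMSO-only controls.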

BT20
GR50, 72 h [1]: 0.00202 µM | GR50, 72 h [2]: 5.2 µM | GR50, 72 h [3]: 0.11 µM | GR50, 72 h [4]: > 10 µM | GR50, 72 h [5]: 2 µM | GR50, 72 h [6]: 0.386 µM | GR50, 72 h [7]: 0.00613 µM | GR50, 72 h [8]: 1.27 µM | GR50, 72 h [9]: > 10 µM | GR value ([10]; 0.001 µM): 0.933 GR | GR value ([10]; 0.003162 µM): 0.9 GR | GR value ([10]; 0.01 µM): 0.69 GR | GR value ([10]; 0.03162 µM): 0.489 GR | GR value ([10]; 0.1 µM): 0.331 GR | GR value ([10]; 0.3162 µM): 0.264 GR | GR value ([10]; 1 µM): 0.231 GR | GR value ([10]; 3.162 µM): 0.163 GR | GR value ([10]; 10 µM): -0.21 GR | GR value ([11]; 0.001 µM): 0.835 GR | GR value ([11]; 0.003162 µM): 0.664 GR | GR value ([11]; 0.01 µM): 0.432 GR | GR value ([11]; 0.03162 µM): 0.395 GR | GR value ([11]; 0.1 µM): 0.219 GR | GR value ([11]; 0.3162 µM): 0.229 GR | GR value ([11]; 1 µM): 0.13 GR | GR value ([11]; 3.162 µM): 0.0428 GR | GR value ([11]; 10 µM): -0.116 GR | GR value ([12]; 0.0001 µM): 0.951 GR | GR value ([12]; 0.0003162 µM): 1.01 GR | GR value ([12]; 0.001 µM): 0.998 GR | GR value ([12]; 0.003162 µM): 1.1 GR | GR value ([12]; 0.01 µM): 0.929 GR | GR value ([12]; 0.03162 µM): -0.235 GR | GR value ([12]; 0.1 µM): -0.645 GR | GR value ([12]; 0.3162 µM): -0.672 GR | GR value ([12]; 1 µM): -0.698 GR | GR value ([13]; 0.0001 µM): 0.987 GR | GR value ([13]; 0.0003162 µM): 0.946 GR | GR value ([13]; 0.001 µM): 0.999 GR | GR value ([13]; 0.003162 µM): 0.931 GR

Reference: the supplement of paper PMC9663587
